In patent US20110071403A1, “FUNCTIONAL NEAR-INFRARED FLUORESCENCE LYMPHATIC MAPPING FOR DIAGNOSING, ACCESSING, MONITORING AND DIRECTING THERAPY OF LYMPHATIC DISORDERS” (BOARD OF REGENTS OF THE UNIVERSITY OF TEXAS SYSTEM, priority 2009, published 2011):
Where a SMILES comes first, the peptide text is derived from it. Bridges are numbered along the chain shown (N, C = ends). Where no end group is shown, it is not given here. The star is where a group is joined. IRDye800CW = CC1(C)C(/C=C/C2=C(Oc3ccc(S(=O)(=O)O)cc3)C(=C/C=C3/N(CCCCS(=O)(=O)O)c4ccc(S(=O)(=O)O)cc4C3(C)C)/CCC2)=[N+](CCCCCC(=O)*)c2ccc(S(=O)(=O)[O-])cc21; IRDye800 = IRDye800 fluorophore

Experiments:
[1] = optical characterization of NIR imaging agents (spectra, extinction coefficient, quantum yield, lifetime, relative brightness); type: physicochemical; conditions: for Emission maximum / Excitation maximum: 1 μM solution; for Extinction Coefficient × 10^4: at 785 nm; for Lifetime: frequency domain method, 785/830 (ex/em), ICG as standard
Method: Fluorescence quantum yield was determined by the comparative method of Williams et al. 1983 (Williams, Winfield and Miller. Analyst 109, 1067, 1983) using the quantum yield of ICG (in water) at 785/830 nm (24) as a standard. Lifetime measurements were obtained using the frequency domain-method using ICG as a standard. The IC50 of IRDye800-ABD was determined using a competitive binding assay modified from Dennis et al. 2002 (ibid). Briefly, MAXISORP fluorescent plates (Nunc, Rochester, N.Y.) were coated with mouse serum albumin (Sigma St Louis, Mo.) and incubated overnight at 4 degrees. Plates were washed three times with PBS+0.05% Tween20 (Sigma St. Louis, Mo.) to remove unbound albumin and were then blocked with TBS in casein (Pierce Rockford, Ill.) for 1 hour at 25 degrees. Equal volumes of unlabeled and labeled peptide were combined in centrifuge tubes for five different concentrations (0.05-10 nM) of unlabeled ABD peptide. The resulting peptide solution was then plated on the albumin coated plate, covered, and incubated for 1-2 hours at 37 degrees. The plate was washed with PBS+0.05% Tween20 three times to remove unbound peptide and fluorescence was measured using the ODYSSEY fluorescent plate reader (LI-COR, Lincoln, Nebr.). The average and standard deviation of four IC-50 values were determined.
In addition, Table 1 lists the relative brightness of each compound relative to ICG which was computed by taking the ratio of ((extinction coefficient)×(quantum yield))/((extinction coefficient of ICG)×(quantum yield of ICG)). […] Spectra for ICG and the IRDye800 conjugates were determined.

[2] = test system: lymphatic vessels and nodes; experiment: in vivo lymphatic imaging, dose escalation after intradermal injection at base of tail; set-up: species or system C57BL/6 mice
Method: (§1) Animal studies were conducted using shaved 6-7 week old female, C57BL/6 mice (Harlan, Charles River). […] Each mouse was injected intradermally at the base of the tail with 20 μL of 500 uM ICG or 20 μL of 100 μM dye for IRDye800, IRDy800-MSA and IRDye800-ABD in order to assess their performance in vivo. The injections were all made by the same investigator and the site was covered with sterile tape immediately prior to imaging to prevent camera saturation.
Animals were illuminated by a laser diode (100 mA, 80 mW for 785 nm, Sanyo; Richmond, Ind.) with the light source expanded to a circular area approximately 8 cm in diameter. Fluorescence emission was collected using an Electron Multiplying Charge Coupled Device (EMCCD) camera with a holographic notch-plus band-rejection filter (785-nm center wavelength for ICG) and a bandpass filter (830-nm center wavelength for ICG) placed prior to the lens to reject back-scattered and reflected excitation light. Fluorescence images were acquired with an integration time of 200 ms. For registration purposes, “white light” images were taken by removing the filters and acquiring images over 500 ms integration time. Up to 750 fluorescent images and 3 white light images were acquired immediately after injection on the left and right side of each animal. Statistical analyses of differences in fluorescent intensity were assessed by student t-test in which α=0.05. […] Images were processed using V++ software (Digital Optics; Auckland, New Zealand), and data was analyzed to determine in vivo fluorescent intensities in select regions of interest (ROI) using IMAGEJ (NIH, Bethesda, Md.) and MATLAB (The Mathworks). Statistical analysis was conducted using the student t-test with α=0.05.
In viva lymphatic imaging studies utilizing an escalating dose of IC was done.

[3] = cited from earlier work
[4] = taken up by the liver and secreted into the bile; cited from earlier work
[5] = test system: lymphatics of arms and legs; experiment: second human study: NIR fluorescence lymphatic imaging with intradermal ICG pre- and post-MLD, apparent lymph velocity and propulsion period; conditions: intradermal ICG up to 400 μg; vitals 2 h, follow-up calls 24 and 48 h
Description: Twelve normal volunteers and 10 subjects clinically diagnosed with Grade I or II unilateral LE participated and provided informed consent. […] The control subjects consisted of 2 males and 10 females, aged 22-59 years. The LE subjects were all female, aged 18-68 years with half experiencing lower extremity LE and the other half upper extremity LE. The injection sites were cleaned with a surgical scrub, followed by alcohol. Immediately after intradermal injection of imaging contrast agent using a 27 gauge needle, NIR fluorescence images were simultaneously acquired from both the LE and contralateral limbs of LE subjects. For control subjects, bilateral arms were imaged simultaneously in 6 subjects, and bilateral legs were imaged in the other 6 subjects. MLD was performed 30 to 60 minutes after the start of imaging followed by another 30 to 60 minutes of imaging. Vital signs were monitored for 2 hours after fluorescent agent administration and follow-up phone calls to assess subjects' condition were made 24 and 48 hours later. […]
The location and movement of lymphatic fluid containing ICG was imaged simultaneously in both limbs using two custom-built fluorescence imaging systems.

[6] = test system: lymphatics of arms and legs; experiment: first human study: NIR fluorescence lymphatic imaging with intradermal ICG, apparent lymph velocity and propulsion period in control and lymphedema subjects; conditions: intradermal ICG up to 400 μg; vitals 2 h, follow-up calls 24 and 48 h
integrin α9β1 on LECs = target: T1, integrin α9β1 on LECs (Homo sapiens, UniProt P05556+Q13797); experiment: fluorescence microscopy of LECs stimulated by VEGF-C; type: cell-based
T1 construct: LECS stimulated by VEGF-C to express α9β1 on the extracellular membrane; endogenous in cells; host or cells: lymphatic endothelial cells (LECs) incubated with VEGF-C
T1 sequence (Q13797 30-1035): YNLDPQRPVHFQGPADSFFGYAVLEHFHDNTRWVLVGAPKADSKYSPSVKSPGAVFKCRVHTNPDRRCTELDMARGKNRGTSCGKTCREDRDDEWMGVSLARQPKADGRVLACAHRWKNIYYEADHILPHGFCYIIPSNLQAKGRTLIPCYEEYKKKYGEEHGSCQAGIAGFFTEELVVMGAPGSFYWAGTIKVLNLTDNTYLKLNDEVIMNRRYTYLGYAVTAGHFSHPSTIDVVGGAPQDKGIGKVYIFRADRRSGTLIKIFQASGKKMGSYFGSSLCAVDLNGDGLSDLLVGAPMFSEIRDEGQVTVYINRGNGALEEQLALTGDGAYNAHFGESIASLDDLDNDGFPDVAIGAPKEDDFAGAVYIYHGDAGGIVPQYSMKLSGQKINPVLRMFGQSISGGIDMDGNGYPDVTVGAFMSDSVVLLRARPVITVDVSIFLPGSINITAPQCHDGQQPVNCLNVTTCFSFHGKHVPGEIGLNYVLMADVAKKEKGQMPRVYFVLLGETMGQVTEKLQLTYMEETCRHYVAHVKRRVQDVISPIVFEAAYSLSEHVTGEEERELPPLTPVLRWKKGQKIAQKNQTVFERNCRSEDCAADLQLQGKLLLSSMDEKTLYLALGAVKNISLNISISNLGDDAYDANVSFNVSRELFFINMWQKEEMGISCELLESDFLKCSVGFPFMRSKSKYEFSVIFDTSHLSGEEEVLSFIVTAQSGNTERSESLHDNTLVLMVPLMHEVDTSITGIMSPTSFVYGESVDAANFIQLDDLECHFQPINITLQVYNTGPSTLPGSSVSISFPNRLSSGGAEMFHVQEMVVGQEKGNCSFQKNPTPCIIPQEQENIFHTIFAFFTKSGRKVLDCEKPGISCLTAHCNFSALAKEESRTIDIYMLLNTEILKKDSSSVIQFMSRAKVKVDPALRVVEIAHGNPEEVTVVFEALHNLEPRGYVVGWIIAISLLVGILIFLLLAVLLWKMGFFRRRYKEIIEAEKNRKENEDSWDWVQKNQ
T1 sequence (P05556 21-798): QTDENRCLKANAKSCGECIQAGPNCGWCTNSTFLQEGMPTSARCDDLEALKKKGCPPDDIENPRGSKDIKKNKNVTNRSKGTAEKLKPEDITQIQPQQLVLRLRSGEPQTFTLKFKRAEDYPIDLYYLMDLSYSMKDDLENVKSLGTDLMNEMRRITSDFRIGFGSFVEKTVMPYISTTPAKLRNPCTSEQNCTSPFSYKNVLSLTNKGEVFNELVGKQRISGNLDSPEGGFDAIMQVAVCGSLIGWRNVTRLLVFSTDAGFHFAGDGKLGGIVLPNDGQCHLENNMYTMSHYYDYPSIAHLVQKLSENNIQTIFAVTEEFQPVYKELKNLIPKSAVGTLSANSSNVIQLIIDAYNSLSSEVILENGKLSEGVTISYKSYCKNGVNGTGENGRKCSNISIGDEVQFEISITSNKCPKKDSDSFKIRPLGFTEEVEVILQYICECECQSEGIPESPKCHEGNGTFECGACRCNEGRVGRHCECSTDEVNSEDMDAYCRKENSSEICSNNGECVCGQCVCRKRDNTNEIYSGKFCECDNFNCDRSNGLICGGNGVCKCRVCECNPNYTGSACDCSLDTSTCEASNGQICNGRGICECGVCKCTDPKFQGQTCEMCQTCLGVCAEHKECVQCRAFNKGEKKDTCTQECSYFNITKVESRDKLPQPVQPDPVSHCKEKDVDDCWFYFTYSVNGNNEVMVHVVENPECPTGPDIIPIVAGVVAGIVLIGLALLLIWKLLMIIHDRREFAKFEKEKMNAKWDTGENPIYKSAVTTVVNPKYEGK
Description: FIG. 19: Fluorescence microscopy of LECS stimulated by VEGF-C to express α9β1 on the extracellular membrane as stained by (from left to right, top) by (i) DAPI, a nuclear stain, (ii) IRDye800-[…] (SEQ ID NO: 2), the imaging conjugate that targets α9β1, and (iii) a fluorescently labeled antibody that targets the β1 portion of α9β1.
This targeting approach can be used to detect the process of lymphangiogenesis in animal models in, for example, drug discovery programs focusing on cessation of tumor lymphangiogenesis (such is associated with cancer metastasis), or as a diagnostic to detect the lymphangiogenesis that occurs in metastatic cancer and other tymphovascular disorders. Lymphangiogenesis and the accompanying activation of LECS are known to be stimulated by vascular endothelial growth factor-C (VEGF-C) or hepatic growth factor (HGF). […] When VEGF-C is not present during incubation, α9β1 (over) expression and IRDye800-[…] […] The induced lymphangiogenesis is clearly visualized by the increase in fluorescence 24 hours through […] after the administration of imaging conjugate, IRDye800-[…] […] (SEQ ID NO: 2) was injected intravenously and 24 hours later, NIR fluorescence imaging was conducted to assess increased update associated with those tissues that were the site of Oxazolone application and increased lymphatic vessel densities that are indicative of lymphangiogenesis.

lymphangiogenesis (α9β1) [7] = experiment: […] plug (with/without HGF) mouse model of lymphangiogenesis, NIR fluorescence imaging; type: in vivo; conditions: 24 hours after intradermal administration
Method: FIG. 20: NIR fluorescent image of an animal model of lymphangiogenesis (top) with a […] plug impregnated with LEC stimulating factor HGF on the right with a control […] plug without HGF on the left. The animal image (top) is taken 24 hours after administration of IRDye800-[…] (SEQ ID NO: 2) showing agent uptake into the […] plug containing LEC stimulating factor HGF and little or no uptake into the […] plug without HGF. When the […] plugs were removed from the animal and imaged, they were then imaged for the presence of IRDye800-[…] (SEQ ID NO: 2).
This targeting approach can be used to detect the process of lymphangiogenesis in animal models in, for example, drug discovery programs focusing on cessation of tumor lymphangiogenesis (such is associated with cancer metastasis), or as a diagnostic to detect the lymphangiogenesis that occurs in metastatic cancer and other tymphovascular disorders. […] The induced lymphangiogenesis is clearly visualized by the increase in fluorescence 24 hours through […] after the administration of imaging conjugate, IRDye800-[…] […] (SEQ ID NO: 2) was injected intravenously and 24 hours later, NIR fluorescence imaging was conducted to assess increased update associated with those tissues that were the site of Oxazolone application and increased lymphatic vessel densities that are indicative of lymphangiogenesis.

lymphangiogenesis (α9β1) [8] = experiment: Oxazolone-induced skin inflammation mouse model, NIR fluorescence imaging; type: in vivo; conditions: 24 hours after intravenous injection, right inflamed vs left untreated side
Method: The NIR imaging was conducted with intradermal administration of ICG (as shown above in human studies) to image both the right and left side lymphatics. […] Increased vessel density, leakiness, and dilated vessels on the inflamed side as compared to the untreated side of the animal as evident from the lymphatic imaging as compared to the left, untreated side.
The right side of the animal which has greater lymphatic density as indicated by ICG imaging (as shown in FIG. 21) is also associated with increased IRDye800-[…] (SEQ ID NO: 2) fluorescence presumably owing to the stimulation of LECS in the process of lymphangiogenesis to produce α9β1 integrin.
This targeting approach can be used to detect the process of lymphangiogenesis in animal models in, for example, drug discovery programs focusing on cessation of tumor lymphangiogenesis (such is associated with cancer metastasis), or as a diagnostic to detect the lymphangiogenesis that occurs in metastatic cancer and other tymphovascular disorders. Lymphangiogenesis and the accompanying activation of LECS are known to be stimulated by vascular endothelial growth factor-C (VEGF-C) or hepatic growth factor (HGF). […] The induced lymphangiogenesis is clearly visualized by the increase in fluorescence 24 hours through […] after the administration of imaging conjugate, IRDye800-[…] […]

inguinal lymph node = experiment: lymphatic clearance study, fluorescence intensity in inguinal lymph node over time
Method: as §1
Animals were illuminated by a laser diode (100 mA, 80 mW for 785 nm, Sanyo; Richmond, Ind.) with the light source expanded to a circular area approximately 8 cm in diameter. Fluorescence emission was collected using an Electron Multiplying Charge Coupled Device (EMCCD) camera with a holographic notch-plus band-rejection filter (785-nm center wavelength for ICG) and a bandpass filter (830-nm center wavelength for ICG) placed prior to the lens to reject back-scattered and reflected excitation light. Fluorescence images were acquired with an integration time of 200 ms. […] Statistical analyses of differences in fluorescent intensity were assessed by student t-test in which α=0.05. […] Images were processed using V++ software (Digital Optics; Auckland, New Zealand), and data was analyzed to determine in vivo fluorescent intensities in select regions of interest (ROI) using IMAGEJ (NIH, Bethesda, Md.) and MATLAB (The Mathworks). […]

mouse serum albumin [9] = target: mouse serum albumin (Mus musculus, UniProt P07724); conditions: read-out: IC-50 of unconjugated ABD peptide for albumin; as reported by Dennis et al., 2002; cited from earlier work
Chain of mouse serum albumin (Mus musculus, UniProt P07724) (P07724 25-608): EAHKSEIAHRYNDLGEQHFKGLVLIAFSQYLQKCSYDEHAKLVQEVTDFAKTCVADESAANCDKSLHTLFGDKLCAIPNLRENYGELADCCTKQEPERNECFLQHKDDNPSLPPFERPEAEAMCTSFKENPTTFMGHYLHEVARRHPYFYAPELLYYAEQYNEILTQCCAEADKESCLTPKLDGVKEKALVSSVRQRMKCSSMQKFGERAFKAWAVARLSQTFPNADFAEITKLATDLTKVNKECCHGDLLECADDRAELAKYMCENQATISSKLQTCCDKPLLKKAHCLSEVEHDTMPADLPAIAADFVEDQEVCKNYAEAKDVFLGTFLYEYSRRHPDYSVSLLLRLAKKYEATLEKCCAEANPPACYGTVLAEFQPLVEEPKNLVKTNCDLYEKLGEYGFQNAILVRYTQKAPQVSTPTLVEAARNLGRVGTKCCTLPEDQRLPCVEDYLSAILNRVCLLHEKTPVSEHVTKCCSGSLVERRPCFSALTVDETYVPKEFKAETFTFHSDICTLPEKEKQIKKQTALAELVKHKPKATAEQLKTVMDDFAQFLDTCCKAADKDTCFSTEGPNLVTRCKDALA

mouse serum albumin [10] = target: T2, mouse serum albumin (mouse, UniProt P07724 25-608); experiment: competitive binding assay on plates coated with mouse serum albumin; unlabeled ABD peptide at 0.05-10 nM mixed with labeled peptide, fluorescence read-out; mean and SD of four IC-50 values
T2 construct: Bought protein; also called MSA

Molecule: CC1(C)C(/C=C/C=C/C=C/C=C2\N(CCCCS(=O)(=O)O)c3ccc4ccccc4c3C2(C)C)=[N+](CCCCS(=O)(=O)[O-])c2ccc3ccccc3c21 [ICG, indocyanine green]
- Emission maximum [1]: 799
- Excitation maximum [1]: 785
- Extinction Coefficient × 10^4 [1]: 8.60 +/− 0.35
- Lifetime [1]: 0.59 +/− 0.049
- concentration sufficient to clearly depict lymphatic architecture in vivo ([2]; 20 μL intradermal at base of tail, mice): 500 µM
- appearance of lymphatic vasculature ([2]; ICG at 500 μM): brighter and more prominent
- appearance of lymphatic vessels and nodes ([2]; ICG at 20 and 100 uM): dim and difficult to discern
- Quantum Yield (ICG standard) ([3]; ICG in water at 785/830 nm, used as standard): 0.016
- maximal absorption ([3]; background statement): 780 nm
- normal biological half-time [4]: 2-4 min
- adverse events associated with the imaging agent [5]: No adverse events
- adverse events associated with the drug [6]: No adverse events

Molecule: IRDye800-GGGPLAEIDGIELTY: IRDye800 conjugated to tenascin C derived integrin α9β1 binding peptide GGGPLAEIDGIELTY (SEQ ID NO: 2)
- binding to LECs incubated in VEGF-C (integrin α9β1 on LECs; VEGF-C for 30 minutes, co-stain with antibody to β1): co-localized with the antibody to β1
- binding to LECs without VEGF-C (integrin α9β1 on LECs; VEGF-C not present during incubation): not seen
- fluorescence of control MATRIGEL plug with no HGF (lymphangiogenesis (α9β1) [7]): did not show appreciable fluorescence
- fluorescence of resected MATRIGEL plug with HGF (lymphangiogenesis (α9β1) [7]): showed fluorescence
- fluorescence in region of Oxazolone skin inflammation (lymphangiogenesis (α9β1) [8]): increased fluorescence

Molecule: CC[C@H](C)[C@H](NC(=O)[C@H](CC(C)C)NC(=O)[C@H](CCCNC(=N)N)NC(=O)CCCCCN1C(=CC=C2CCCC(C=CC3=[N+](CCCCS(=O)(=O)[O-])c4ccc(S(=O)(=O)O)cc4C3(C)C)=C2Oc2ccc(S(=O)(=O)O)cc2)C(C)(C)c2cc(S(=O)(=O)O)ccc21)C(=O)N[C@@H](CCC(=O)O)C(=O)N[C@@H](CC(=O)O)C(=O)N[C@H](C(=O)N[C@H]1CSSC[C@@H](C(=O)N[C@@H](CC(C)C)C(=O)N[C@@H](Cc2c[nH]c3ccccc23)C(=O)N[C@@H](CCC(=O)O)C(=O)N[C@@H](CC(=O)O)C(=O)N[C@@H](CC(=O)O)C(=O)O)NC(=O)CNC(=O)[C@H](Cc2c[nH]c3ccccc23)NC(=O)[C@H](CCCNC(=N)N)NC(=O)[C@@H]2CCCN2C(=O)[C@H](CC(C)C)NC1=O)[C@@H](C)CC [IRDye800-ABD] (IRDye800CW-RLIEDICLPRWGCLWEDD-OH; disulfide 7-13; N-terminus and C-terminus assumed)
- Emission maximum [1]: 803
- Excitation maximum [1]: 780
- Intensity relative to ICG ([1]; (extinction coefficient × quantum yield) ratio to ICG): 25.9
- Quantum Yield ([1]; at 785/830 (ex/em), comparative method with ICG as standard): 0.0647 +/− 0.0007
- Extinction Coefficient × 10^4 [1]: 54.836 +/− 0.25
- Lifetime [1]: 0.92 +/− 0.057
- lymphatic clearance from inguinal lymph node (inguinal lymph node; 0.5 to 50 min after injection): slowed clearance
- fluorescence intensity in inguinal node, initially (inguinal lymph node; initial time after intradermal injection): started out with a lower intensity

Molecule: RLIEDICLPRWGCLWEDD [ABD peptide]
- IC50 (mouse serum albumin [9]): 5 nM

B1: IRDye800-ABD (albumin binding domain peptide RLIEDICLPRWGCLWEDD conjugated to IRDye800CW) (peptide)
peptide: RLIEDICLPRWGCLWEDD
modifications: cysteine pairing not given here; also: IRDye800CW label attached via NHS ester, site not given here
notes: Made by adding a 1.75 times molar excess of IRDye800CW to the ABD peptide, then HPLC purified; also called IRDye800-ABD conjugate; ABD-IRDye800 conjugate
- IC50 (mouse serum albumin [10]): 1.19 nM
